Paper PMC5218480 (PLoS ONE, 2017)

Test system: MV-4-11 cells
Assay: Gene expression microarray analysis (Affymetrix PrimeView) and GSEA
Format: cell-based, human
Design: RFU PODN (11730768_x_at) / Fold change /veh PODN (11730768_x_at) / RFU LINC00158 (11744669_a_at) / Fold change /veh LINC00158 (11744669_a_at) / RFU DUSP10 (11751237_a_at) / Fold change /veh DUSP10 (11751237_a_at) / RFU ID3 (11757404_x_at) / Fold change /veh ID3 (11757404_x_at) / RFU PLEKHG5 (11737974_s_at) / Fold change /veh PLEKHG5 (11737974_s_at) / RFU LRRC4B (11730491_at) / Fold change /veh LRRC4B (11730491_at) / RFU GIMAP4 (11747438_a_at) / Fold change /veh GIMAP4 (11747438_a_at) / RFU KRT8 (11758183_x_at) / Fold change /veh KRT8 (11758183_x_at) / RFU CNN1 (11734310_a_at) / Fold change /veh CNN1 (11734310_a_at) / RFU VPS37D (11726825_at) / Fold change /veh VPS37D (11726825_at) / RFU C10orf10 (11716522_x_at) / Fold change /veh C10orf10 (11716522_x_at) / RFU KIR2DL2 /// KIR2DL4 /// KIR2DL5A /// KIR2DL5B /// KIR2DS1 /// KIR2DS2 /// KIR2DS3 /// KIR2DS4 /// KIR3DL3 /// KIR3DL3 /// KIR3DS1 (11738374_at) / Fold change /veh KIR2DL2 /// KIR2DL4 /// KIR2DL5A /// KIR2DL5B /// KIR2DS1 /// KIR2DS2 /// KIR2DS3 /// KIR2DS4 /// KIR3DL3 /// KIR3DL3 /// KIR3DS1 (11738374_at) / RFU C1QL1 (11718748_at) / Fold change /veh C1QL1 (11718748_at) / RFU TMPRSS4 (11747572_a_at) / Fold change /veh TMPRSS4 (11747572_a_at) / RFU HAMP (11756126_x_at) / Fold change /veh HAMP (11756126_x_at) / RFU RNFT2 (11725882_a_at) / Fold change /veh RNFT2 (11725882_a_at) / RFU NR4A2 (11747474_a_at) / Fold change /veh NR4A2 (11747474_a_at) / RFU ABCC12 (11746883_a_at) / Fold change /veh ABCC12 (11746883_a_at) / RFU TMEM136 (11760407_x_at) / Fold change /veh TMEM136 (11760407_x_at) / RFU CLDN22 /// WWC2 (11732394_at) / Fold change /veh CLDN22 /// WWC2 (11732394_at) / RFU HLA-DPB1 (11760878_x_at) / Fold change /veh HLA-DPB1 (11760878_x_at) / RFU SPINT1 (11716480_a_at) / Fold change /veh SPINT1 (11716480_a_at) / RFU GAP43 (11754022_s_at) / Fold change /veh GAP43 (11754022_s_at) / RFU A4GNT (11735810_at) / Fold change /veh A4GNT (11735810_at) / RFU PRB3 (11715151_x_at) / Fold change /veh PRB3 (11715151_x_at) / RFU TUBB4B (11761932_at) / Fold change /veh TUBB4B (11761932_at) / RFU CAPN14 (11732068_a_at) / Fold change /veh CAPN14 (11732068_a_at) / RFU TMCC2 (11721928_a_at) / Fold change /veh TMCC2 (11721928_a_at) / RFU IRGQ (11745062_a_at) / Fold change /veh IRGQ (11745062_a_at) / RFU FAM174B (11720279_a_at) / Fold change /veh FAM174B (11720279_a_at) / RFU TMPRSS4 (11748680_a_at) / Fold change /veh TMPRSS4 (11748680_a_at) / RFU FAM212B (11763350_a_at) / Fold change /veh FAM212B (11763350_a_at) / RFU PLEKHG5 (11743358_a_at) / Fold change /veh PLEKHG5 (11743358_a_at) / RFU ZSCAN30 (11745921_a_at) / Fold change /veh ZSCAN30 (11745921_a_at) / RFU CMKLR1 (11741424_a_at) / Fold change /veh CMKLR1 (11741424_a_at) / RFU LOC101060620 /// MAPK8IP1 (11723275_at) / Fold change /veh LOC101060620 /// MAPK8IP1 (11723275_at) / RFU SPTSSB (11747773_x_at) / Fold change /veh SPTSSB (11747773_x_at) / RFU PRSS12 (11739890_at) / Fold change /veh PRSS12 (11739890_at) / RFU BIN1 (11741810_x_at) / Fold change /veh BIN1 (11741810_x_at) / RFU WNT11 (11732464_a_at) / Fold change /veh WNT11 (11732464_a_at) / RFU C10orf10 (11716521_a_at) / Fold change /veh C10orf10 (11716521_a_at) / RFU C5orf56 (11738089_at) / Fold change /veh C5orf56 (11738089_at) / RFU CYB561 (11721691_x_at) / Fold change /veh CYB561 (11721691_x_at) / RFU ANKRD19P (11752326_a_at) / Fold change /veh ANKRD19P (11752326_a_at) / RFU OR2T12 /// OR2T33 /// OR2T8 (11738714_s_at) / Fold change /veh OR2T12 /// OR2T33 /// OR2T8 (11738714_s_at) / RFU VCAN (11748164_a_at) / Fold change /veh VCAN (11748164_a_at) / RFU JSRP1 (11732532_at) / Fold change /veh JSRP1 (11732532_at) / RFU KRTAP10-11 (11738290_x_at) / Fold change /veh KRTAP10-11 (11738290_x_at) / RFU MYO3A (11730013_a_at) / Fold change /veh MYO3A (11730013_a_at) / RFU EBF3 (11725865_a_at) / Fold change /veh EBF3 (11725865_a_at) / RFU CAMK2N1 (11719241_x_at) / Fold change /veh CAMK2N1 (11719241_x_at) / RFU C5orf56 (11738088_a_at) / Fold change /veh C5orf56 (11738088_a_at) / RFU OLFML3 (11715873_a_at) / Fold change /veh OLFML3 (11715873_a_at) / RFU LOC100653217 /// NTM (11731650_a_at) / Fold change /veh LOC100653217 /// NTM (11731650_a_at) / RFU MAPK11 (11762145_a_at) / Fold change /veh MAPK11 (11762145_a_at) / RFU FIZ1 (11724087_x_at) / Fold change /veh FIZ1 (11724087_x_at) / RFU OASL (11726364_x_at) / Fold change /veh OASL (11726364_x_at) / RFU SOX15 (11748057_x_at) / Fold change /veh SOX15 (11748057_x_at) / RFU CD79A (11719716_a_at) / Fold change /veh CD79A (11719716_a_at) / RFU HIST1H1D (11736915_at) / Fold change /veh HIST1H1D (11736915_at) / RFU CASKIN2 (11723855_a_at) / Fold change /veh CASKIN2 (11723855_a_at) / RFU LOC730098 (11760151_x_at) / Fold change /veh LOC730098 (11760151_x_at) / RFU OR4N2 (11742367_at) / Fold change /veh OR4N2 (11742367_at) / RFU PRRT2 (11749266_a_at) / Fold change /veh PRRT2 (11749266_a_at) / RFU SNX32 (11753110_a_at) / Fold change /veh SNX32 (11753110_a_at) / RFU CDHR5 (11726645_a_at) / Fold change /veh CDHR5 (11726645_a_at) / RFU RCAN1 (11760418_a_at) / Fold change /veh RCAN1 (11760418_a_at) / RFU FAM167A (11723789_a_at) / Fold change /veh FAM167A (11723789_a_at) / RFU FAM26E (11764081_at) / Fold change /veh FAM26E (11764081_at) / RFU ISYNA1 (11749810_s_at) / Fold change /veh ISYNA1 (11749810_s_at) / RFU ACY1 (11761880_at) / Fold change /veh ACY1 (11761880_at) / RFU 11764098_at / Fold change /veh 11764098_at / RFU SAMD14 (11745864_x_at) / Fold change /veh SAMD14 (11745864_x_at) / RFU NPB (11741838_a_at) / Fold change /veh NPB (11741838_a_at) / RFU TMPRSS6 (11731388_a_at) / Fold change /veh TMPRSS6 (11731388_a_at) / RFU KRTAP10-2 (11738614_at) / Fold change /veh KRTAP10-2 (11738614_at) / RFU ARHGAP8 /// PRR5-ARHGAP8 (11727945_x_at) / Fold change /veh ARHGAP8 /// PRR5-ARHGAP8 (11727945_x_at) / RFU KRTAP5-7 /// NADSYN1 (11734609_at) / Fold change /veh KRTAP5-7 /// NADSYN1 (11734609_at) / RFU RASL12 (11751679_a_at) / Fold change /veh RASL12 (11751679_a_at) / RFU CDKN2B (11736163_a_at) / Fold change /veh CDKN2B (11736163_a_at) / RFU PRF1 (11729649_at) / Fold change /veh PRF1 (11729649_at) / RFU, ZNF638 /// ZNF638-IT1 / Fold change vs veh, ZNF638 /// ZNF638-IT1 / RFU, PANK3 / Fold change vs veh, PANK3 / RFU, SH3YL1 / Fold change vs veh, SH3YL1 / RFU, ZEB2 / Fold change vs veh, ZEB2 / RFU, NRIP1 / Fold change vs veh, NRIP1 / RFU, PTTG1IP / Fold change vs veh, PTTG1IP / RFU, CAPN2 / Fold change vs veh, CAPN2 / RFU, MED14 / Fold change vs veh, MED14 / RFU, SNORA58 / Fold change vs veh, SNORA58 / RFU, C1orf63 / Fold change vs veh, C1orf63 / RFU, LRRFIP1 / Fold change vs veh, LRRFIP1 / RFU, NDUFAF7 / Fold change vs veh, NDUFAF7 / RFU, SLC12A2 / Fold change vs veh, SLC12A2 / RFU, IBTK / Fold change vs veh, IBTK / RFU, ESF1 / Fold change vs veh, ESF1 / Fold change vs veh, TMEM50B / RFU, TAOK1 / Fold change vs veh, TAOK1 / RFU, ACBD3 / Fold change vs veh, ACBD3 / RFU, TMA16 / Fold change vs veh, TMA16 / RFU, RWDD3 / Fold change vs veh, RWDD3 / RFU, BCAT1 / Fold change vs veh, BCAT1 / RFU, EDEM3 / Fold change vs veh, EDEM3 / RFU, TMEM33 / Fold change vs veh, TMEM33 / RFU, WDR75 / Fold change vs veh, WDR75 / RFU, AHCTF1 / Fold change vs veh, AHCTF1 / RFU, TFRC / Fold change vs veh, TFRC / RFU, ZDHHC17 / Fold change vs veh, ZDHHC17 / RFU, NOM1 / Fold change vs veh, NOM1 / RFU, ARL8B / Fold change vs veh, ARL8B / RFU, ZBTB11 / Fold change vs veh, ZBTB11 / RFU, TAMM41 / Fold change vs veh, TAMM41 / RFU, KIAA1704 /// LOC100996395 / Fold change vs veh, KIAA1704 /// LOC100996395 / RFU, ING1 / Fold change vs veh, ING1 / RFU, TRMT61B / Fold change vs veh, TRMT61B / RFU, FUBP3 / Fold change vs veh, FUBP3 / RFU, TP53 / Fold change vs veh, TP53 / RFU, TNKS2 / Fold change vs veh, TNKS2 / RFU, ZFP14 / Fold change vs veh, ZFP14 / RFU, ACTR2 / Fold change vs veh, ACTR2 / RFU, PPP3R1 / Fold change vs veh, PPP3R1 / RFU, PIK3R1 / Fold change vs veh, PIK3R1 / RFU, HNRNPA1 / Fold change vs veh, HNRNPA1 / RFU, RNF170 / Fold change vs veh, RNF170 / RFU, ZNF28 / Fold change vs veh, ZNF28 / RFU, RNGTT / Fold change vs veh, RNGTT / RFU, OGT / Fold change vs veh, OGT / RFU, BRD1 / Fold change vs veh, BRD1 / RFU, MARS / Fold change vs veh, MARS / RFU, ZNF655 / Fold change vs veh, ZNF655 / RFU, FAHD1 / Fold change vs veh, FAHD1 / RFU, BDP1 / Fold change vs veh, BDP1 / RFU, LRRCC1 / Fold change vs veh, LRRCC1 / RFU, ARID1A / Fold change vs veh, ARID1A / RFU, ZNF146 / Fold change vs veh, ZNF146 / RFU, ZNF330 / Fold change vs veh, ZNF330 / RFU, GPN3 / Fold change vs veh, GPN3 / RFU, C9orf123 / Fold change vs veh, C9orf123 / RFU, N4BP2L2 / Fold change vs veh, N4BP2L2 / RFU, ARFIP1 / Fold change vs veh, ARFIP1 / RFU, FAM179B / Fold change vs veh, FAM179B / RFU, BCL10 / Fold change vs veh, BCL10 / RFU, UHRF1BP1L / Fold change vs veh, UHRF1BP1L / RFU, BET1 / Fold change vs veh, BET1 / RFU, CNOT2 / Fold change vs veh, CNOT2 / RFU, ZNF268 / Fold change vs veh, ZNF268 / Fold change vs veh, ZNF507 / RFU, DGCR2 / Fold change vs veh, DGCR2 / RFU, WDSUB1 / Fold change vs veh, WDSUB1 / Fold change vs veh, HSP90B1 /// MIR3652 / RFU, ADSS / Fold change vs veh, ADSS / RFU, GK / Fold change vs veh, GK / RFU, ZNF148 / Fold change vs veh, ZNF148 / RFU, TAF9 / Fold change vs veh, TAF9 / RFU, SLC1A5 / Fold change vs veh, SLC1A5 / RFU, SLMO2 / Fold change vs veh, SLMO2 / RFU, ABCC4 / Fold change vs veh, ABCC4 / RFU, LOC101060439 /// RAP1B / Fold change vs veh, LOC101060439 /// RAP1B / RFU, RFX7 / Fold change vs veh, RFX7 / RFU, GTPBP10 / Fold change vs veh, GTPBP10 / RFU, CNEP1R1 / Fold change vs veh, CNEP1R1 / RFU, BIVM-ERCC5 /// ERCC5 / Fold change vs veh, BIVM-ERCC5 /// ERCC5 / RFU, ILF3 / Fold change vs veh, ILF3 / RFU 11762660_at / Fold change /veh 11762660_at / RFU VCAN (11757783_s_at) / Fold change /veh VCAN (11757783_s_at) / RFU DDX43 (11728927_at) / Fold change /veh DDX43 (11728927_at) / RFU KRT8 (11758188_x_at) / Fold change /veh KRT8 (11758188_x_at) / RFU NKD1 (11759106_at) / Fold change /veh NKD1 (11759106_at) / RFU SRD5A1 (11742802_a_at) / Fold change /veh SRD5A1 (11742802_a_at) / RFU TPSAB1 /// TPSB2 (11721975_s_at) / Fold change /veh TPSAB1 /// TPSB2 (11721975_s_at) / RFU GSTM3 (11746129_a_at) / Fold change /veh GSTM3 (11746129_a_at) / RFU IL23R (11737362_x_at) / Fold change /veh IL23R (11737362_x_at) / RFU TMEM51 (11727254_a_at) / Fold change /veh TMEM51 (11727254_a_at) / RFU PIWIL2 (11732686_x_at) / Fold change /veh PIWIL2 (11732686_x_at) / RFU ORM1 (11744905_x_at) / Fold change /veh ORM1 (11744905_x_at) / RFU CCDC152 (11743942_at) / Fold change /veh CCDC152 (11743942_at) / RFU ECM1 (11717891_a_at) / Fold change /veh ECM1 (11717891_a_at) / RFU IL23R (11748794_a_at) / Fold change /veh IL23R (11748794_a_at) / RFU TNFAIP8L3 (11732012_x_at) / Fold change /veh TNFAIP8L3 (11732012_x_at) / RFU MBOAT4 (11741988_at) / Fold change /veh MBOAT4 (11741988_at) / RFU 11764193_at / Fold change /veh 11764193_at / RFU TMEM53 (11763286_at) / Fold change /veh TMEM53 (11763286_at) / RFU MAGEB2 (11727129_at) / Fold change /veh MAGEB2 (11727129_at) / RFU TMEM200A (11744735_a_at) / Fold change /veh TMEM200A (11744735_a_at) / RFU CCDC152 (11751479_a_at) / Fold change /veh CCDC152 (11751479_a_at) / RFU FAM211A (11726209_a_at) / Fold change /veh FAM211A (11726209_a_at) / RFU RGS16 (11746705_a_at) / Fold change /veh RGS16 (11746705_a_at) / RFU VCAN (11755009_s_at) / Fold change /veh VCAN (11755009_s_at) / RFU RHOB (11743442_s_at) / Fold change /veh RHOB (11743442_s_at) / RFU RGS16 (11720943_a_at) / Fold change /veh RGS16 (11720943_a_at) / RFU RGS16 (11720944_at) / Fold change /veh RGS16 (11720944_at) / RFU, VPS4B / Fold change vs veh, VPS4B / RFU, CREB1 / Fold change vs veh, CREB1 / RFU, DNAJC13 / Fold change vs veh, DNAJC13 / RFU, GNAQ / Fold change vs veh, GNAQ / RFU, CDK5R1 / Fold change vs veh, CDK5R1 / RFU, ZRANB3 / Fold change vs veh, ZRANB3 / RFU, CUL4A / Fold change vs veh, CUL4A / RFU, CCNY / Fold change vs veh, CCNY / RFU, UFL1 / Fold change vs veh, UFL1 / RFU, COG3 / Fold change vs veh, COG3 / RFU, DIAPH2 / Fold change vs veh, DIAPH2 / RFU, SKA2 / Fold change vs veh, SKA2 / RFU, AFF3 / Fold change vs veh, AFF3 / RFU, LMF1 / Fold change vs veh, LMF1 / RFU, IPO11 / Fold change vs veh, IPO11 / RFU, DFFB / Fold change vs veh, DFFB / RFU, FOXP1 / Fold change vs veh, FOXP1 / RFU, CARD8 / Fold change vs veh, CARD8 / RFU, STRN3 / Fold change vs veh, STRN3 / RFU, ADK / Fold change vs veh, ADK / RFU, RASSF2 / Fold change vs veh, RASSF2 / RFU, WIPF1 / Fold change vs veh, WIPF1 / RFU, LARP1B / Fold change vs veh, LARP1B / RFU, RASA1 / Fold change vs veh, RASA1 / RFU, RB1 / Fold change vs veh, RB1 / RFU, PPFIA1 / Fold change vs veh, PPFIA1 / RFU, MAT2A / Fold change vs veh, MAT2A / RFU, CCT5 / Fold change vs veh, CCT5 / RFU, WDR92 / Fold change vs veh, WDR92 / RFU, CUX1 / Fold change vs veh, CUX1 / RFU, TTC7A / Fold change vs veh, TTC7A / RFU, TMEM135 / Fold change vs veh, TMEM135 / RFU, DEPTOR / Fold change vs veh, DEPTOR / RFU, CPM / Fold change vs veh, CPM / RFU, DNAJB6 / Fold change vs veh, DNAJB6 / RFU, CACNA2D3 / Fold change vs veh, CACNA2D3 / RFU, DTX4 / Fold change vs veh, DTX4 / RFU, TFCP2 / Fold change vs veh, TFCP2 / RFU, GMCL1 /// GMCL1P1 / Fold change vs veh, GMCL1 /// GMCL1P1 / RFU, AEBP2 / Fold change vs veh, AEBP2 / RFU, SNHG1 /// SNORD22 /// SNORD25 /// SNORD26 /// SNORD27 /// SNORD28 /// SNORD29 /// SNORD31 / Fold change vs veh, SNHG1 /// SNORD22 /// SNORD25 /// SNORD26 /// SNORD27 /// SNORD28 /// SNORD29 /// SNORD31 / Fold change (Aza/veh), C12orf56 (ProbeSet 11735607_a_at) / Fold change (ACY-1035/veh), C12orf56 (ProbeSet 11735607_a_at) / Fold change (Aza/veh), FGFR1OP (ProbeSet 11751329_s_at) / Fold change (ACY-1035/veh), FGFR1OP (ProbeSet 11751329_s_at) / Fold change (Aza/veh), VPS36 (ProbeSet 11739960_a_at) / Fold change (ACY-1035/veh), VPS36 (ProbeSet 11739960_a_at) / RFU SYPL1 (11715823_x_at) / Fold change /veh SYPL1 (11715823_x_at) / RFU IGFBP7 (11715501_s_at) / Fold change /veh IGFBP7 (11715501_s_at) / RFU REEP3 (11722064_at) / Fold change /veh REEP3 (11722064_at) / RFU IGLL1 (11728026_x_at) / Fold change /veh IGLL1 (11728026_x_at): dose or concentration left out as unconfirmed
Details: MV-4-11 cells, 48 hours

Q: Nc1ncn([C@@H]2O[C@H](CO)[C@@H](O)[C@H]2O)c(=O)n1 [azacitidine] was tested. Which “RFU FAM167A (11723789_a_at)” value did it give?
A: 38.83 RFU
